Assay results reported in patent US12459974B2, “Bicyclic peptide ligands specific for Nectin-4” (priority 2018, dated 2025).
Where two headings read alike, the source gives them in different places. *1 amine or outer side, *2 acyl side, *3 side chain or, on linkers, in order; H or OH if unused. Where a SMILES comes first, the peptide text is derived from it. Bridges are numbered along the chain shown (N, C = ends). Roman numbers before positions name the chains, in order. [ ]: non-standard residue; d: D form. The star is where a group is joined. ξ: configuration not given here. TATA = O=C(CC[*:1])N1CN(C(=O)CC[*:2])CN(C(=O)CC[*:3])C1; Dolaproine = CO[C@@H]([C@@H]1CCCN1)[C@@H](C)C(=O)O; X1 = CC[C@H](C)C(C(CC(=O)[*:2])OC)N(C)[*:1]; 1Nal = N[C@@H](Cc1cccc2ccccc12)C(=O)O; X3 = O=C(CCCC(=O)[*:2])NCCC(=O)[*:1]; PABC = O=C(OCc1ccc(N[*:1])cc1)[*:2]; Hyp = O=C(O)[C@@H]1C[C@@H](O)CN1; hArg = N=C(N)NCCCC[C@H](N)C(=O)O; Cit = NC(=O)NCCC[C@H](N)C(=O)O; X2 = CC(N*)[C@@H](O)c1ccccc1; ξNMeV = CNC(C(=O)O)C(C)C; ξV = CC(C)C(N)C(=O)O; Sar = CNCC(=O)O

How the values were obtained:
[1] = tested on: MDA-MB-468 cell line; assay: Example 11: HCS assay, Nectin-4 BDC binding study; assay type: cell-based
Experimental: HCS assay was used in Nectin-4 BDC binding study. Cells were incubated with test agent and then washed. Detection was by a fluorescent antibody to MMAE.

[2] = tested on: MDA-MB-468 xenograft; assay: Example 9.8: in vivo efficacy of BCY8245, BCY8781 and BCY8245 with BCY8234 in MDA-MB-468 xenograft in Balb/c nude mice; set-up: species or system Mus Musculus; details: for tumor relapse (in words): following monitoring schedule
[3] = tested on: Panc2.13 xenograft; assay: Example 9.7: in vivo efficacy in Panc2.13 xenograft in Balb/c nude mice; details: for Tumor volume: iv
Experimental: The major endpoint was to see if the tumor growth could be delayed or mice could be cured. Tumor volume was measured three times weekly in two dimensions using a caliper, and the volume was expressed in mm^3 using the formula: V=0.5 a×b^2 where a and b are the long and short diameters of the tumor, respectively. The tumor size was then used for calculations of T/C value. The T/C value (in percent) is an indication of antitumor effectiveness; T and C are the mean volumes of the treated and control groups, respectively, on a given day. TGI was calculated for each group using the formula: TGI (%)=[1−(Ti−T0)/(Vi−V0)]×100; Ti is the average tumor volume of a treatment group on a given day, T0 is the average tumor volume of the treatment group on the day of treatment start, Vi is the average tumor volume of the vehicle control group on the same day with Ti, and V0 is the average tumor volume of the vehicle group on the day of treatment start.
A one-way ANOVA was performed to compare tumor volume among groups, and when a significant F-statistics (a ratio of treatment variance to the error variance) was obtained, comparisons between groups were carried out with Games-Howell test. All data were analyzed using GraphPad Prism 5.0. P<0.05 was considered to be statistically significant.
• Species: Mus Musculus • Strain: Balb/c nude • Age: 6-8 weeks • Sex: female • Body weight: 18-22 g • Number of animals: 41 mice plus spare 3.1.2.
The Panc2.13 tumor cells will be maintained in RMPI1640 medium supplemented with 15% heat inactivated fetal bovine serum and 10 units/ml human recombinant insulin at 37° C. in an atmosphere of 5% CO2 in air. The tumor cells will be routinely subcultured twice weekly. The cells growing in an exponential growth phase will be harvested and counted for tumor inoculation.
Each mouse was inoculated subcutaneously at the right flank with Panc2.13 tumor cells (5×10^6 with Matrigel (1:1) in 0.2 ml of PBS for tumor development. 41 animals were randomized when the average tumor volume reached 149 mm^3. The test article administration and the animal numbers in each group were shown in the experimental design table.
Tumor growth inhibition rate for Test articles in the Panc2.13 xenograft model was calculated based on tumor volume measurements at day 14 after the start of treatment.

[4] = 1 mg/kg qw and 3 mg/kg qw in combination with BCY8234 300 mg/kg qw, day 21

Compound: CC[C@H](C)C(C(CC(=O)N1CCC[C@H]1[C@H](OC)[C@@H](C)C(=O)NC(C)[C@@H](O)c1ccccc1)OC)N(C)C(=O)[C@@H](NC(=O)C(C(C)C)N(C)C(=O)OCc1ccc(NC(=O)[C@H](CCCNC(N)=O)NC(=O)C(NC(=O)CCCC(=O)NCCC(=O)N(C)CC(=O)N(C)CC(=O)N(C)CC(=O)N(C)CC(=O)N(C)CC(=O)N(C)CC(=O)N(C)CC(=O)N(C)CC(=O)N(C)CC(=O)N(C)CC(=O)N[C@H]2CSCCC(=O)N3CN4CN(C3)C(=O)CCSC[C@H](NC(=O)[C@@H](CC(=O)O)NC(=O)[C@H](Cc3cccc5ccccc35)NC(=O)[C@@H]3CCCN3C2=O)C(=O)N[C@@H](CCSC)C(=O)N[C@@H](CCCCNC(=N)N)C(=O)N[C@@H](CC(=O)O)C(=O)N[C@@H](Cc2c[nH]c3ccccc23)C(=O)N[C@@H](CO)C(=O)N[C@@H]([C@@H](C)O)C(=O)N2CCC[C@H]2C(=O)N2C[C@H](O)C[C@H]2C(=O)N[C@@H](Cc2c[nH]c3ccccc23)C(=O)N[C@H](C(N)=O)CSCCC4=O)C(C)C)cc1)C(C)C (stereo partly drawn) [BCY8245, MMAE-PABC-Cit-Val-Glutaryl-BCY8234] (I: [Sar][Sar][Sar][Sar][Sar][Sar][Sar][Sar][Sar][Sar]CP[1Nal][dD]CM[hArg]DWSTP[Hyp]WC-NH2 / II: [ξV][Cit][PABC][ξNMeV]V[X1][Dolaproine]-X2; linker I:11-I:15-I:25 via TATA; linker I:N-II:N via X3)
- Bmax (in words) [1]: lower than for the Nectin-4 ADC
- binding affinity on MDA-MB-468 cell line (in words) [1]: single digit nanomolar affinity
- Max fluorescent intensity ([1]; MDA-MB-468 cell line, fluorescent antibody to MMAE): 13.34
- Kd ([1]; MDA-MB-468 cell line, historical data, read-out: Historical Kd): 5.18 nM
- Kd ([1]; MDA-MB-468 cell line, read-out: Kd): 3.52 nM
- retention on the cells (in words) ([1]; detection by a fluorescent antibody to MMAE): retained on the cells
- anti-tumor activity (in words) ([2]; 0.3 mg/kg qw or biw): did not show any anti-tumor activity
- TGI [2, 4]: 75.4%
- Tumor volume (TV) [2, 4]: 242 mm^3
- TGI ([2]; 1 mg/kg qw, day 21): 92.1%
- Tumor volume (TV) ([2]; 1 mg/kg qw, day 21): 204 mm^3
- tumor relapse (in words) ([2]; 1 mg/kg qw): obvious tumor relapse
- TGI ([2]; 3 mg/kg qw, day 21): 164.9%
- Tumor volume (TV) ([2]; 3 mg/kg qw, day 21): 27 mm^3
- tumor relapse (in words) ([2]; 3 mg/kg qw): didn't show any tumor relapse
- anti-tumor activity at 3 mg/kg in presence of BCY8234 at 300 mg/kg versus alone (in words) ([2]; 3 mg/kg with BCY8234 300 mg/kg): antagonized by BCY8234
- T/C ([2]; 0.3 mpk, qw): 71.4%
- TGI ([2]; 0.3 mpk, qw): 52.7%
- T/C ([2]; 1 mpk, qw): 48.6%
- TGI ([2]; 1 mpk, qw): 92.1%
- T/C ([2]; 3 mpk, qw): 6.5%
- TGI ([2]; 3 mpk, qw): 164.9%
- tumor response (in words) ([2]; former vehicle group, single dose of 5 mg/kg on day 32): obvious tumor regression
- TGI ([3]; 3 mg/kg biw, day 14): 79.1%
- Tumor volume (TV) ([3]; 3 mg/kg biw, day 14): 231 mm^3
- TGI ([3]; 3 mg/kg qw, day 14): 69.2%
- Tumor volume (TV) ([3]; 3 mg/kg qw, day 14): 271 mm^3
- TGI ([3]; 5 mg/kg qw, day 14): 77.5%
- Tumor volume (TV) ([3]; 5 mg/kg qw, day 14): 238 mm^3
- Tumor volume ([3]; 3 mpk, biw, day 0 after the start of treatment): 148 mm^3
- Tumor volume ([3]; 3 mpk, biw, day 2): 170 mm^3
- Tumor volume ([3]; 3 mpk, biw, day 4): 204 mm^3
- Tumor volume ([3]; 3 mpk, biw, day 7): 216 mm^3
- Tumor volume ([3]; 3 mpk, biw, day 9): 236 mm^3
- Tumor volume ([3]; 3 mpk, biw, day 11): 241 mm^3
- Tumor volume ([3]; 3 mpk, biw, day 14): 231 mm^3
- T/C ([3]; 3 mpk, biw, day 14): 42.3%
- TGI ([3]; 3 mpk, biw, day 14): 79.1%
- Tumor Volume (Mean ± SEM) ([3]; 3 mpk, biw, day 14): 231 ± 57 mm^3
- Tumor volume ([3]; 3 mpk, qw, day 0 after the start of treatment): 149 mm^3
- Tumor volume ([3]; 3 mpk, qw, day 2): 160 mm^3
- Tumor volume ([3]; 3 mpk, qw, day 4): 191 mm^3
- Tumor volume ([3]; 3 mpk, qw, day 7): 215 mm^3
- Tumor volume ([3]; 3 mpk, qw, day 9): 242 mm^3
- Tumor volume ([3]; 3 mpk, qw, day 11): 259 mm^3
- Tumor volume ([3]; 3 mpk, qw, day 14): 271 mm^3
- T/C ([3]; 3 mpk, qw, day 14): 49.6%
- TGI ([3]; 3 mpk, qw, day 14): 69.2%
- Tumor Volume (Mean ± SEM) ([3]; 3 mpk, qw, day 14): 271 ± 54 mm^3
- Tumor volume ([3]; 5 mpk, qw, day 0 after the start of treatment): 149 mm^3
- Tumor volume ([3]; 5 mpk, qw, day 2): 180 mm^3
- Tumor volume ([3]; 5 mpk, qw, day 4): 231 mm^3
- Tumor volume ([3]; 5 mpk, qw, day 7): 242 mm^3
- Tumor volume ([3]; 5 mpk, qw, day 9): 248 mm^3
- Tumor volume ([3]; 5 mpk, qw, day 11): 231 mm^3
- Tumor volume ([3]; 5 mpk, qw, day 14): 238 mm^3
- T/C ([3]; 5 mpk, qw, day 14): 43.6%
- TGI ([3]; 5 mpk, qw, day 14): 77.5%
- Tumor Volume (Mean ± SEM) ([3]; 5 mpk, qw, day 14): 238 ± 40 mm^3
- tumor response (in words) ([3]; mouse, in vivo): tumor growth is restrained by BCY8245 but the tumor does not undergo regression
